In patent US8618154B2, “LXR modulators” (Bristol-Myers Squibb Company, priority 2009, dated 2013):

Tested on: ABCA1 gene expression
Assay: Human whole blood assay (hWBA), ABCA1 mRNA induction
Format: cell-based
Conditions: Homo sapiens; full LXRα and LXRβ pan agonist used as reference; read-out: EC50 of reference compound
Method: Human whole blood was collected in EDTA containing tubes and 0.5 mL aliquots were immediately mixed in a 96 well block with the appropriate serial dilution of test compound, in 0.5% DMSO. Compounds were incubated with blood at 37° C. with constant rocking for 4 hours. After incubation, cells were lysed in ABI Nucleic Acid Purification Lysis Solution (Applied Biosystems catalog #4305895) and frozen at −80° C. Following cell lysis, total RNA was purified using an ABI 6100 RNA prep station according to the protocol provided by the manufacturer. cDNAs were synthesized, and mRNAs were quantitated using SYBR-Green Quantitative PCR (Q-PCR) on an ABI Prism 7900HT Sequence Detection System and reagents from Quanta Bioscience Inc (Quanta Bioscience catalog #95047 and 95055).
The quantity of each mRNA was determined by the ΔΔCT method (Michael W. Pfaffl. A new mathematical model for relative quantification in real-time RT-PCR. Nucleic Acids Research, 2001, Vol. 29, No. 9 e45) and normalized to the quantity of two control mRNAs, i.e. ribosomal protein L-30 (L-30) and beta-2-microglobulin (B2M). The induction of ABCA1 and ABCG1 by test compound was graphed as a percent of the reference compound, 2-(4-(5-(5-cyano-1-(2,4-difluorobenzyl)-6-oxo-4-(trifluoromethyl)-1,6-dihydropyridin-2-yl)thiophen-2-yl)-3-methylphenyl)acetic acid, and potency (EC50) and activity (% MAX) were calculated by fitting a sigmoidal response curve as a function of log transformed compound concentration using XLFit software according to the equation y=A+((B−A)/(1+((C/x)^D))).

EC50: 1000 to 2000 nM
Compound: Cc1cc(CC(=O)O)ccc1-c1ccc(-c2cc(C(F)(F)F)c(C#N)c(=O)n2Cc2ccc(F)cc2F)s1 [2-(4-(5-(5-cyano-1-(2,4-difluorobenzyl)-6-oxo-4-(trifluoromethyl)-1,6-dihydropyridin-2-yl)thiophen-2-yl)-3-methylphenyl)acetic acid, reference compound]
